US9204653B2, “5-fluoro pyrimidine derivatives” (DOW AGROSCIENCES LLC, priority 2008, dated 2015)
Read-outs that look alike come from different tables or passages of the source.

Test system: Mycosphaerella graminicola; Anamorph: Septoria tritici; Bayer Code SEPTTR
Experiment: Leaf blotch of wheat, foliar fungicide treatment, one day protectant (1DP) or three day curative (3DC)
Type: in vivo, Septoria tritici on wheat plants (variety Yuma)
Conditions: Zymoseptoria tritici, percent control rating; for pest or weed control at 100 ppm: read-out: SEPTTR 3DC 100 ppm
[1] = 24 h, one day protectant (1DP), 25 ppm (first 1DP column), read-out: SETTTR 1DP 25 ppm
[2] = 24 h, one day protectant (1DP), 25 ppm as printed (second 1DP column), read-out: SETTTR 1DP 25 ppm
[3] = 72 h, three day curative (3DC), 25 ppm, read-out: SEPTTR 3DC 25 ppm

Compound	pest or weed control at 25 ppm [1] [%]	pest or weed control at 25 ppm [2] [%]	pest or weed control at 25 ppm [3] [%]	pest or weed control at 100 ppm (72 h, three day curative (3DC)) [%]
N=C(NO)Nc1nc(OCc2ccccc2)ncc1F [Compound 964, 1-[2-(Benzyloxy)-5-fluoropyrimidin-4-yl]-3-hydroxyguanidine]	0 to 25	0 to 25	0 to 25	26 to 50
O=C(Nc1nc(O)ncc1F)c1ccc(Cl)nc1 [Compound 965]	26 to 50	76 to 100	26 to 50	26 to 50
O=C(Nc1ccccc1Cl)Nc1nc(O)ncc1F [Compound 966]	26 to 50	51 to 75	51 to 75	51 to 75
O=C(Nc1ccccc1)Nc1nc(O)ncc1F [Compound 967]	26 to 50	26 to 50	51 to 75	51 to 75
Cc1ccc(NC(=O)Nc2nc(O)ncc2F)cc1 [Compound 968]	51 to 75	51 to 75	51 to 75	51 to 75
O=C(NCc1ccccc1)Nc1nc(O)ncc1F [Compound 969]	26 to 50	26 to 50	26 to 50	51 to 75
O=C(NCc1ccccc1F)Nc1nc(O)ncc1F [Compound 970]	26 to 50	51 to 75	26 to 50	26 to 50
CC(C)NC(=O)Nc1nc(O)ncc1F [Compound 971]	26 to 50	26 to 50	51 to 75	76 to 100
CCCCCNC(=O)Nc1nc(O)ncc1F [Compound 972]	51 to 75	76 to 100	51 to 75	51 to 75
O=C(Nc1nc(O)ncc1F)NC1CCCC1 [Compound 973]	26 to 50	26 to 50	76 to 100	51 to 75
O=C(/C=C/c1ccccc1)Nc1nc(O)ncc1F [Compound 974]	51 to 75	76 to 100	51 to 75	26 to 50
CC(C)(C)NC(=O)Nc1nc(O)ncc1F [Compound 975]	0 to 25	0 to 25	0 to 25	0 to 25
CCOC(=O)CNC(=O)Nc1nc(O)ncc1F [Compound 976]	0 to 25	0 to 25	0 to 25	0 to 25
Cc1coc(C)c1C(=O)Nc1nc(O)ncc1F [Compound 977]	0 to 25	51 to 75	0 to 25	76 to 100
Cn1ncc(C(=O)Nc2nc(O)ncc2F)c1Cl [Compound 978]	0 to 25	0 to 25	0 to 25	0 to 25
O=C(Nc1nc(O)ncc1F)c1ccsc1 [Compound 979]	0 to 25	26 to 50	0 to 25	51 to 75
CCCNC(=O)Nc1nc(O)ncc1F [Compound 980]	0 to 25	0 to 25	0 to 25	0 to 25
O=C(NCc1ccco1)Nc1nc(O)ncc1F [Compound 981]	0 to 25	0 to 25	0 to 25	0 to 25
CCCCCOC(=O)Nc1nc(OCc2ccccc2)ncc1F [Compound 982]	76 to 100	76 to 100	76 to 100	76 to 100
C=CCOC(=O)Nc1nc(OCc2ccccc2)ncc1F [Compound 983]	76 to 100	76 to 100	76 to 100	76 to 100
CCCCCOC(=O)Nc1nc(OCc2ccc(F)cc2)ncc1F [Compound 984]	76 to 100	76 to 100	76 to 100	76 to 100
C=CCOC(=O)Nc1nc(OCc2ccc(F)cc2)ncc1F [Compound 985]	76 to 100	76 to 100	76 to 100	76 to 100
CCCCCOC(=O)Nc1nc(OCc2ccc(C)cc2)ncc1F [Compound 986]	76 to 100	76 to 100	76 to 100	76 to 100

Compound	pest or weed control at 25 ppm [1] [%]	pest or weed control at 25 ppm [2] [%]	pest or weed control at 25 ppm [3] [%]	pest or weed control at 100 ppm (72 h, three day curative (3DC)) [%]
C=CCOC(=O)Nc1nc(OCc2ccc(C)cc2)ncc1F [Compound 987]	76 to 100	76 to 100	76 to 100	76 to 100
CCCCCOC(=O)Nc1nc(OCc2cccc(OC)c2)ncc1F [Compound 988]	76 to 100	76 to 100	76 to 100	76 to 100
C=CCOC(=O)Nc1nc(OCc2cccc(OC)c2)ncc1F [Compound 989]	76 to 100	76 to 100	51 to 75	76 to 100
C/C(=N\Oc1nc(OCc2ccccc2)ncc1F)c1cnc(OCC(F)(F)F)nc1 [Compound 990]	0 to 25	0 to 25	0 to 25	0 to 25
Fc1cnc(OCc2ccccc2)nc1/N=N/c1ccccc1 [Compound 991]	0 to 25	0 to 25	0 to 25	0 to 25
Cc1ccc(COc2ncc(F)c(/N=N/c3ccccc3)n2)cc1 [Compound 992]	0 to 25	0 to 25	0 to 25	26 to 50
Fc1cnc(OCc2ccccc2)nc1/N=N/c1ccccn1 [Compound 993]	0 to 25	26 to 50	0 to 25	51 to 75
Cc1ccc(COc2ncc(F)c(NS(=O)(=O)c3ccccc3)n2)cc1 [Compound 994]	0 to 25	26 to 50	0 to 25	0 to 25
CCc1ccccc1NNc1nc(OCc2ccc(C)cc2)ncc1F [Compound 995]	0 to 25	26 to 50	0 to 25	0 to 25
COc1ccccc1NNc1nc(OCc2ccc(C)cc2)ncc1F [Compound 996]	26 to 50	51 to 75	26 to 50	51 to 75
CC(C)=NOc1ncc(F)c(N)n1 [Compound 997]	76 to 100	76 to 100	76 to 100	76 to 100
Nc1nc(ON=C(C2CC2)C2CC2)ncc1F [Compound 998]	76 to 100	76 to 100	76 to 100	76 to 100
COc1ccc(/C(C)=N/Oc2ncc(F)c(N)n2)cc1 [Compound 999]	76 to 100	76 to 100	76 to 100	76 to 100
C/C(=N\Oc1ncc(F)c(N)n1)c1ccc(Cl)cc1 [Compound 1000]	76 to 100	76 to 100	76 to 100	76 to 100
C/C(=N\Oc1ncc(F)c(N)n1)c1cnc(OCC(F)(F)F)nc1 [Compound 1001]	26 to 50	76 to 100	26 to 50	76 to 100
C/C(=N\Oc1ncc(F)c(N)n1)c1ccc(S(=O)(=O)N(C)C)cc1 [Compound 1002]	51 to 75	76 to 100	26 to 50	51 to 75
CC(C)S(=O)(=O)Nc1nc(OCc2ccc(F)cc2)ncc1F [Compound 1004]	0 to 25	0 to 25	0 to 25	26 to 50
O=S(=O)(Nc1nc(OCc2ccc(F)cc2)ncc1F)c1ccccc1 [Compound 1005]	0 to 25	0 to 25	0 to 25	0 to 25
CCS(=O)(=O)Nc1nc(OCc2ccc(C)cc2)ncc1F [Compound 1006]	0 to 25	0 to 25	0 to 25	0 to 25
Cc1ccc(COc2ncc(F)c(NS(=O)(=O)C3CC3)n2)cc1 [Compound 1007]	0 to 25	0 to 25	0 to 25	0 to 25
CS(=O)(=O)Nc1nc(OCc2ccccc2)ncc1F [Compound 1008]	0 to 25	0 to 25	0 to 25	0 to 25
CC(C)S(=O)(=O)Nc1nc(OCc2ccccc2)ncc1F [Compound 1009]	0 to 25	0 to 25	0 to 25	0 to 25
